From patent US8470876B2, “Lipid composition for the treatment of skin problems in companion animals” (priority 2009, dated 2013)

Tests used:
Assay type in all cases: in vivo
[1] = system: symmetrical lupoid onychodystrophy (SLO); test: Case: schapendoes dog with symmetrical lupoid onychodystrophy (SLO); conditions: initial treatment before supplementation
Description: A four year old, female schapendoes dog was diagnosed with symmetrical lupoid onychodystrophy (SLO). […] Supplementation with the nutritional oil blend as prepared in example 1 at 4 ml/10 kg body weight was started immediately after the secondary infections had cleared.

[2] = system: atopic and pruritic skin; test: Case: Parson Russell terrier with atopic and pruritic skin; conditions: past treatment history of the same dog
Source text: An eight-year-old Parson Russell terrier had suffered for a long time from atopic and pruritic skin. The dog had been treated with cortisone and with a variety of different fatty acid supplements containing GLA and fish oil fatty acids (EPA and DHA). […] Constant itching tired the dog and it became phlegmatic. The dog was put on daily dosing of the nutritional oil blend as prepared in example 1 and a clear change in the dogs skin condition and behaviour occurred in a matter of weeks. The rashes and itching was reduced by 95%.

[3] = system: rhinarium; test: Case: French Bulldog with dry, rough and chapped rhinarium; conditions: past treatment history of the same dog
Source text: In this breed of dogs the rhinarium is typically black, but for this individual the black colour of the rhinarium had faded and was grey. […] Topical treatment with oil or ointments provided temporary smoothing effect and a change in colour. […] The rhinarium was no longer rough and chapped, but it was supple and had obtained a characteristic black colour. Subsequently the positive effect on the rhinarium condition was produced with the oil blend in dogs from different breeds.

[4] = system: skin and claws; test: Case: Bullterrier with skin problems and splitting and breaking claws; conditions: past treatment history of the same dog
Source text: A three year old, female Bullterrier Dog had suffered from various skin problems since it was a puppy. The skin problems were characterized by red spots in the stomach and hairless spots in the head and in the hind limbs. In addition to the skin problems the dog suffered from splitting and breaking claws. The claws kept constantly breaking and by the age of three the claws had never grown long enough to be clipped. […] The skin was cleared from the red spots and the hairless areas started to grow hair. The positive effects on the skin health remained over several months as the supplementation was continued. […] Three months after the supplementation with the oil blend had begun, the dog's claws needed to be clipped. This was the first time in this dog's life.

## CC1=C(C(=O)O)N2C(=O)[C@@H](NC(=O)[C@H](N)c3ccccc3)[C@H]2SC1 [cephalexin]
[1]
  secondary bacterial infections in affected claws: total resolution of the bacterial infection

## C[C@]12CCC(=O)C=C1CC[C@@H]1[C@@H]2C(=O)C[C@@]2(C)[C@H]1CC[C@]2(O)C(=O)CO [cortisone]
[2]
  effect of earlier treatments on atopic and pruritic skin: provided help only for some weeks

## vitamin A
[3]
  appearance of the rhinarium with earlier nutritional supplements: without any appreciable effect

## O=C(O)CCCC[C@@H]1SC[C@@H]2NC(=O)N[C@@H]21 [biotin]
[3]
  appearance of the rhinarium with earlier nutritional supplements: without any appreciable effect
[4]
  claws with earlier treatment: without any appreciable improvement
